15 molecules from ChEMBL document CHEMBL1795288, “Lignans and neolignans from Sinocalamus affinis and their absolute configurations” (2011) can be followed below.

Active and inactive are the calls of the source. The calls are words filed in the database; no cut-off is given here.

Assay [1] concerns Human immunodeficiency virus 1. The assay can be described thus: Antiviral activity against HIV1 NL4-3 infected in human 293T cells assessed as inhibition of viral replication at 10 uM after 48 hrs by luciferase reporter gene assay. Format: functional, organism-based. (Reporter assays use an easily measured gene product as a stand-in for the process of interest.)
In the next assay the test system is PC-12. The assay can be described thus: Neuroprotective activity against serum deprivation-induced toxicity in rat PC12 cells assessed as increase in cell viability at 10 uM after 48 hrs by MTT assay. Format: functional.
Assay [2] relates to Peritoneal macrophage cell. Nature of the assay: Inhibition of LPS-induced nitric oxide production in C57BL/6J mouse peritoneal macrophages at 10 uM after 24 hrs by Griess reaction. The assay is classed as functional. On the technique in general: The Griess reaction detects nitrite, a stable product of nitric oxide.
The test system of another assay is Liver microsomes. The assay can be described thus: Antioxidant activity in rat Liver microsome assessed as inhibition of Fe2+-cystine-induced lipid peroxidation at 10 uM. Format: functional. For orientation: Microsomes from liver hold many membrane-bound enzymes, among them those of drug oxidation.
Another assay has as its system WB-F344. The assay can be described thus: Hepatoprotective activity against DL-galactosamine-induced cell damage in rat WB-F344 cells at 10 uM after 24 hrs by MTT assay. Format: functional, cell-based.
Another assay has as its system A549. Nature of the assay: Cytotoxicity against human A549 cells at 10 uM after 96 hrs by MTT assay. Format: functional, cell-based.
A further assay relates to BGC-823. The assay can be described thus: Cytotoxicity against human BGC823 cells at 10 uM after 96 hrs by MTT assay. The assay is classed as functional, cell-based.
A further assay has as its system MCF7. The assay can be described thus: Cytotoxicity against human MCF7 cells at 10 uM after 96 hrs by MTT assay. The assay is classed as functional, cell-based.
A further assay relates to Bel-7402. The assay can be described thus: Cytotoxicity against human Bel7402 cells at 10 uM after 96 hrs by MTT assay. Format: functional, cell-based.
In the next assay the test system is KETR3. Nature of the assay: Cytotoxicity against human Ketr3 cells at 10 uM after 96 hrs by MTT assay. Format: functional, cell-based.
For the next assay, the system named is HCT-8. Nature of the assay: Cytotoxicity against human HCT8 cells at 10 uM after 96 hrs by MTT assay. Format: functional, cell-based.

By inhibition is commonly meant the drop in the measured response relative to a control, in per cent. Consider `COc1cc([C@H](O)[C@H](CO)Oc2c(OC)cc(-c3cc(=O)c4c(O)cc(O)cc4o3)cc2OC)ccc1O` [SALCOLIN B], for which the inhibition result (in assay [1]; in the assay on Liver microsomes) was “inactive” in each case. The Activity in the assay on PC-12 turned out to be 97.6%. In [2], this molecule gave an inhibition at 10 µM of 71.7%. In addition, the result in the assay with WB-F344, in the assay with A549, with BGC-823, in the assay on MCF7, in the assay with Bel-7402 and in the assay with KETR3 was inactive. The outcome with HCT-8 was inactive.

With `COc1cc([C@H](O)[C@H](CO)Oc2c(OC)cc(C(=O)O)cc2OC)ccc1O`, the inhibition result (in [1]; in the assay on Liver microsomes) was “inactive” throughout. For the same molecule, the inhibition at 10 µM in assay [2] was < 30%. In addition, the outcome in the assay on WB-F344, with A549, with BGC-823, in the assay on MCF7, with Bel-7402 and in the assay on KETR3 was inactive. Also, the outcome in the assay on HCT-8 was inactive.

`COc1cc(-c2cc(=O)c3c(O)cc(O)cc3o2)cc(OC)c1O[C@@H](CO)[C@@H](O)c1ccc(O)cc1`: the inhibition entry (in assay [1]; in the assay on Liver microsomes) was “inactive” each time. In the assay on PC-12, the Activity is on record as 107.2%. In addition, in assay [2], the inhibition at 10 µM was 84.2%. The outcome in the assay with WB-F344, with A549, in the assay with BGC-823, with MCF7, in the assay with Bel-7402 and with KETR3 was inactive. In the assay with HCT-8, the outcome was inactive.

Consider `COc1cc([C@H](O)[C@H](CO)Oc2c(OC)cc(O)cc2OC)ccc1O`, for which the inhibition result (in assay [1]; in the assay with Liver microsomes) was “inactive” in each case. In addition, in [2], the inhibition at 10 µM is < 30%. The outcome in the assay on WB-F344, in the assay with A549, in the assay with BGC-823, in the assay on MCF7, in the assay on Bel-7402 and in the assay with KETR3 was inactive. In addition, in the assay with HCT-8, the outcome was inactive.

Turning to `COc1cc([C@@H](O)[C@H](CO)Oc2c(OC)cc([C@@H]3OC[C@@H]4[C@H]3CO[C@H]4c3cc(OC)c(O[C@@H](CO)[C@H](O)c4ccc(O)c(OC)c4)c(OC)c3)cc2OC)ccc1O`, the inhibition result (in assay [1]; in the assay on Liver microsomes) was “inactive” in each case. Also, the inhibition at 10 µM in [2] is < 30%. In addition, the outcome in the assay with WB-F344, in the assay on A549, with BGC-823, in the assay on MCF7, in the assay on Bel-7402 and in the assay on KETR3 was inactive. The result with HCT-8 was inactive.

On to `COc1cc([C@@H]2Oc3c(OC)cc(/C=C/CO)cc3[C@H]2CO)cc(OC)c1OC`, for which the inhibition entry (in [1]; in the assay on Liver microsomes) was “inactive” each time. In assay [2], the inhibition at 10 µM is < 30%. The outcome in the assay on WB-F344, in the assay with A549, in the assay on BGC-823, in the assay on MCF7, in the assay with Bel-7402 and in the assay on KETR3 was inactive. The result in the assay on HCT-8 was inactive.

As for `COc1cc([C@@H]2OC[C@@H]3[C@H]2CO[C@H]3c2cc(OC)c(OC)c(OC)c2)cc(OC)c1O`, the inhibition entry (in [1]; in the assay with Liver microsomes) was “inactive” in each case. Besides, the inhibition at 10 µM in [2] was < 30%. Moreover, the outcome in the assay with WB-F344, with A549, in the assay with BGC-823, in the assay on MCF7, in the assay on Bel-7402 and in the assay with KETR3 was inactive. The result with HCT-8 was inactive.

Turning to `COc1cc([C@H](O)[C@@H](CO)Oc2c(OC)cc([C@@H]3Oc4c(OC)cc(C=O)cc4[C@H]3CO)cc2OC)ccc1O`, the inhibition entry (in assay [1]; in the assay with Liver microsomes) was “inactive” in each case. Further, in assay [2], the inhibition at 10 µM was < 30%. Moreover, the outcome with WB-F344, in the assay with A549, in the assay on BGC-823, in the assay with MCF7, in the assay on Bel-7402 and with KETR3 was inactive. Also, in the assay on HCT-8, the outcome was inactive.

Take `COc1cc([C@H](O)[C@H](CO)Oc2c(OC)cc([C@@H]3OC[C@@H]4[C@H]3CO[C@H]4c3cc(OC)c(O[C@@H](CO)[C@@H](O)c4ccc(O)c(OC)c4)c(OC)c3)cc2OC)ccc1O`: the inhibition entry (in assay [1]; in the assay on Liver microsomes) was “inactive” in each case. In addition, the inhibition at 10 µM in [2] is < 30%. For the same molecule, the outcome in the assay on WB-F344, in the assay with A549, in the assay with BGC-823, in the assay with MCF7, in the assay on Bel-7402 and in the assay on KETR3 was inactive. Besides, the outcome in the assay with HCT-8 was inactive.

For `COc1cc([C@@H]2O[C@@H](c3cc(OC)c(OC)c(OC)c3)[C@H](CO)[C@H]2CO)cc(OC)c1O`, the inhibition entry (in [1]; in the assay with Liver microsomes) was “inactive” throughout. In addition, in [2], the inhibition at 10 µM is < 30%. Moreover, the outcome in the assay with WB-F344, in the assay with A549, in the assay on BGC-823, in the assay with MCF7, in the assay on Bel-7402 and in the assay on KETR3 was inactive. Further, the result with HCT-8 was inactive.

On to `COc1cc(-c2cc(=O)c3c(O)cc(O)cc3o2)cc(OC)c1O[C@@H](CO)[C@H](O)c1ccc(O)cc1`, for which the inhibition result (in assay [1]; in the assay on Liver microsomes) was “inactive” in each case. For the same molecule, in the assay with PC-12, the Activity was found to be 80.7%. The inhibition at 10 µM in [2] is < 30%. For the same molecule, the result in the assay on WB-F344, with A549, in the assay with BGC-823, in the assay on MCF7, with Bel-7402 and in the assay with KETR3 was inactive. For the same molecule, the outcome in the assay with HCT-8 was inactive.

In [2], `C[C@@H]1C[C@H]2[C@@H]3CCC4=CC(=O)C=C[C@]4(C)[C@@]3(F)[C@@H](O)C[C@]2(C)[C@@]1(O)C(=O)CO` [DEXAMETHASONE] displayed an inhibition at 10 µM of 61.6%.

As to `COc1cc([C@@H](O)[C@H](CO)Oc2c(OC)cc(-c3cc(=O)c4c(O)cc(O)cc4o3)cc2OC)ccc1O`, the inhibition entry (in assay [1]; with Liver microsomes) was “inactive” in each case. For the same molecule, the inhibition at 10 µM in [2] is < 30%. Besides, the outcome in the assay on WB-F344, with A549, in the assay on BGC-823, in the assay on MCF7, with Bel-7402 and with KETR3 was inactive. Also, the result in the assay on HCT-8 was inactive.

Turning to `COc1cc(C(=O)[C@@H]2CO[C@H](c3cc(OC)c(O)c(OC)c3)[C@H]2CO)cc(OC)c1O`, the inhibition result (in [1]; in the assay on Liver microsomes) was “inactive” throughout. For the same molecule, in [2], the inhibition at 10 µM is < 30%. The result with WB-F344, with A549, in the assay on BGC-823, with MCF7, in the assay on Bel-7402 and in the assay on KETR3 was inactive. In the assay on HCT-8, the outcome was inactive.

As for `COc1cc2c(c(OC)c1O)[C@H]1c3c(cc(OC)c(O)c3OC)OC[C@@H](C2)[C@H]1CO`, the inhibition entry (in [1]; in the assay with Liver microsomes) was “inactive” throughout. In addition, the inhibition at 10 µM in [2] was < 30%. Besides, the outcome in the assay with WB-F344, in the assay on A549, in the assay with BGC-823, in the assay with MCF7, in the assay on Bel-7402 and in the assay on KETR3 was inactive. Also, the outcome in the assay on HCT-8 was inactive.
